According to US20130347134A1, “TRANSGENIC VON WILLEBRAND FACTOR ANIMALS AND USES THEREOF” (priority 2012, published 2013):
Entries after “also recorded” stand apart in the source; their conditions may differ.

Tests used:
[1] = system: murine platelet rich plasma; assay: Ristocetin-induced platelet aggregation assay (RIPA), murine platelet rich plasma; assay type: cell-based, mouse
Experimental: In Ristocetin-induced platelet aggregation assays (RIPA), platelet GPIb a binding to wild type human VWF or mouse VWF was analyzed in the absence or presence of ristocetin as described previously (Inbal, et al., 1993). In this method, platelet rich plasma (PRP) is placed in a clear cuvette containing a stir bar and inserted into the aggregometer. Platelet aggregation is induced by the addition of ristocetin. […] In fact, only at concentrations of 2.5 mg/ml was there any evidence of murine platelet aggregation observed (about 30%, FIG. 10C).

human platelets [2] = assay: Ex vivo platelet adhesion, parallel-plate flow chamber, human whole blood over surface-immobilized VWF or VWF-A1, 1600 s^-1; assay type: cell-based; details: for translocation velocities of human platelets: on plasma VWF, mean±s.e.m, n=4
Experimental: Ex vivo platelet adhesion studies. Experiments were performed in a parallel-plate flow chamber as previously described (Offermanns, S., et al., 2006). For studies involving plasma VWF, a polyclonal anti-VWF antibody (Dako) was absorbed overnight (4° C.) to a six well tissue culture plate. Subsequently, the plate was washed and non-specific interactions blocked by the addition of TBS containing 3% BSA, pH 7.4 (1 hour, 37° C.). Human or murine plasma obtained from heparinized whole blood was added and the plates placed at 37° C. for an additional 2 hours. Generation, purification, and surface-immobilization of recombinant VWF-A1 proteins was performed as previously described (Doggett, T. A. et al., 2002). Both human and murine VWF-A1 constructs consist of amino acid residues 1238 to 1471, with a single intra-disulfide bond formed between residues 1272 and 1458 and were generated in bacteria. Citrated whole blood (150 μl) collected via cardiac puncture from anesthetized homozygous VWF^1326R>H or WT mice or from venopuncture from human volunteers was perfused over the immobilized substrates at a wall shear rate of 1600 s^−1 for 4 minutes, followed by washing with Tyrode's buffer under the identical flow conditions. The number of platelets attached per unit area (0.07 mm^2) and translocation velocities were determined by off-line analysis (Image-Pro Plus, Media Cybernetics). For GPIb α inhibition studies, the function-blocking mAb 6D1 (20 μg/ml) or mAb SZ2 (20 μg/ml; Beckman Coulter, Brea, Calif.) was added to anticoagulated human blood for 30 minutes prior to use. Experiments were performed in triplicate on two separate days. An ELISA was used to ensure equivalent coating concentration of plasma and recombinant proteins (Denis, C. et al., 1998).

[3] = target: ADP receptor on murine platelets (Mus musculus, UniProt Q9CPV9); details: FIG. 46A
Experimental: (§1) Tail bleeding assay. […] For studies involving PLAVIX, animals received a 50 mg/kg oral dose of the drug the day before and 2 hours prior to the administration of human platelets.

thrombus = details: maximal effective dose 50 mg/kg the day before and 2 hours prior; cited from earlier work
human platelets [4] = assay: Optical aggregometry, human platelets resuspended in platelet poor plasma of VWF^R1326H or VWF^HA1 mice; assay type: cell-based
Experimental: Although the R1326H mutation in murine VWF can support human platelet mediated hemostasis and thrombosis, there still exists a major difference between the human and mouse A1 domains. Specifically, only the human form can be activated to bind to GPIb alpha on human platelets. Ristocetin is an antibiotic that was taken off the market due to its ability to cause von Willebrand factor to bind the platelet receptor GPIb alpha, so when ristocetin is added to normal blood, it causes platelet clumping. […] Thus, murine VWF bearing the majority of the human A1 domain functions in manner more closely to that in humans, making it a better biological platform for studying human platelet function and the effects of antiplatelet agents for use in human beings.

human platelets [5] = assay: Tail bleeding assay, human platelet-induced hemostasis in homozygous VWF^1326R>H mice; assay type: in vivo, mouse; details: for human platelet-induced hemostatic clot formation: drug given to homozygous VWF^1326R>H mice receiving human platelets
Experimental: as §1
This assay provides an indirect measure of the ability of platelets and VWF to support hemostasis by interacting with the injured vessel wall. It also indirectly determines the function of multiple receptors and ligands on platelets that are required to form a hemostatic plug. […] It is performed by immersing the severed tip (10 mm) of the animal's tail in isotonic saline at 37° C. and monitoring the length of time required for bleeding to cease. Homozygous mutant mice will be infused with an equal volume of either saline or purified human platelets. Platelet specific antibodies or drugs will be administered as described above and their ability to prolong bleeding time evaluated.

αIIb β3 = target: T1, αIIb β3 (Homo sapiens, UniProt P05106+P08514); details: intravenous bolus 0.25 mg/kg, then 0.125 μg/kg/min; cited from earlier work
T1 construct: endogenous in cells; host or cells: platelets of treated patients

murine αIIb β3 = murine αIIb β3 (Mus musculus, UniProt O54890+Q9QUM0); details: cited from earlier work
mouse platelets = assay: Parallel plate flow system, WT mouse blood over immobilized plasma VWF of VWF HA1 mice; assay type: cell-based
From the text: WT mouse blood was then infused over the immobilized substrate.

human platelets [6] = assay: Parallel plate flow system, human platelets over immobilized plasma VWF of VWF HA1 mice; assay type: cell-based

Sequence of ADP receptor on murine platelets (Q9CPV9 whole entry): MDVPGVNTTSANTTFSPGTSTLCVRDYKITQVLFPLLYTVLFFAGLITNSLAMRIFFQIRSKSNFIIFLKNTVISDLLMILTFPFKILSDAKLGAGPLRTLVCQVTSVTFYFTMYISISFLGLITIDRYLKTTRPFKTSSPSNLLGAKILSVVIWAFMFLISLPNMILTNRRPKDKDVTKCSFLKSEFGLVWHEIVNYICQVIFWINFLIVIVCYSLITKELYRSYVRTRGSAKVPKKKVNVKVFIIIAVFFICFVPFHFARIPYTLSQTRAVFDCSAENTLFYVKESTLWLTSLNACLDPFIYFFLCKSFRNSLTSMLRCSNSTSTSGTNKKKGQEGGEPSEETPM
Sequence of murine αIIb β3 (Q9QUM0 32-1033): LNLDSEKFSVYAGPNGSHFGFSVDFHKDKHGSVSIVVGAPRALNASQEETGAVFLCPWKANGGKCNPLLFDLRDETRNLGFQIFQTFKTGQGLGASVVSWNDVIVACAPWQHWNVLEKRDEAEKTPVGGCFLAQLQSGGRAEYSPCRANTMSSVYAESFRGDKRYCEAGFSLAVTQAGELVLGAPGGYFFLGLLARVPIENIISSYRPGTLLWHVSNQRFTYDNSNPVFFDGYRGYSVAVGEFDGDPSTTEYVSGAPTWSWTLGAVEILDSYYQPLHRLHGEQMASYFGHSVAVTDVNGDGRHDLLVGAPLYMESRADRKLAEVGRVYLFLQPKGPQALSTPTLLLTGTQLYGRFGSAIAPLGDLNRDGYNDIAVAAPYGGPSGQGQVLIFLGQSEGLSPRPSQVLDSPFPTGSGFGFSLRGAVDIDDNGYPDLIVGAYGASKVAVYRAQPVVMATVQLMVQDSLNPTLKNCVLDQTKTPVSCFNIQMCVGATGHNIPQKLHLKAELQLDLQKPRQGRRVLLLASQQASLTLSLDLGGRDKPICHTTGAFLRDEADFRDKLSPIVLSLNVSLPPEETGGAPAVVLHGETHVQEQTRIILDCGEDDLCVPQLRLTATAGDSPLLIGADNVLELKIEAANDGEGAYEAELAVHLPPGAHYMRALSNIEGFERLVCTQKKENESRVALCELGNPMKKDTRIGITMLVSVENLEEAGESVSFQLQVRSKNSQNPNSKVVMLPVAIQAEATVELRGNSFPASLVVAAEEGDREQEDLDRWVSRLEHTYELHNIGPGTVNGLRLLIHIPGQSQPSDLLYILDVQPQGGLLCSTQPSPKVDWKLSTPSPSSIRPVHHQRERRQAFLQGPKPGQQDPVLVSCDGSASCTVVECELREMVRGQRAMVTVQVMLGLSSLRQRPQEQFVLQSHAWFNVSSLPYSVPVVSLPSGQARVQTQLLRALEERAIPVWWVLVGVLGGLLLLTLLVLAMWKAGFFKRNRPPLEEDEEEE
Sequence of murine αIIb β3 (O54890 26-787): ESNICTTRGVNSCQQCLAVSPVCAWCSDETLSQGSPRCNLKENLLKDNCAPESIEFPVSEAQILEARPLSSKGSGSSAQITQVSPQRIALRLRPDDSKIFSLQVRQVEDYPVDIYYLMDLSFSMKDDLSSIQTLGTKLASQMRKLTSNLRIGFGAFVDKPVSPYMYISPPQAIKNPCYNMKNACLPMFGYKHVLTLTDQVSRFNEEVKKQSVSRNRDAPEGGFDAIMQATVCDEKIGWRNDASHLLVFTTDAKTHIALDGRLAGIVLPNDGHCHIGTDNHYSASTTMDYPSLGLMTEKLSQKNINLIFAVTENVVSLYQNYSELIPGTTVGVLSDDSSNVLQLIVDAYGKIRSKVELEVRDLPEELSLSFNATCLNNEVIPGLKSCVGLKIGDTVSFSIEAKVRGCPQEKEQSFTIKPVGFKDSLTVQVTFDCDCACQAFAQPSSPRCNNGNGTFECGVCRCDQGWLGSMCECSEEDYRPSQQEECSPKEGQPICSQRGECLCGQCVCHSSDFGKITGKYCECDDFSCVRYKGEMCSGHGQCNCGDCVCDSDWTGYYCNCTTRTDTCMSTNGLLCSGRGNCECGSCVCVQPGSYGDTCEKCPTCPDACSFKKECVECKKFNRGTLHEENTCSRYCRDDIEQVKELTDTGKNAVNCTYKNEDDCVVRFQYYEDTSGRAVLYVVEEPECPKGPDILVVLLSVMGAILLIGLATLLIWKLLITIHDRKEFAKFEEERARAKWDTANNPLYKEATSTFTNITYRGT

thrombin
platelet aggregation ([1]; incubation of murine PRP with thrombin): > 90%

native human plasma VWF: human plasma VWF
translocation velocities of human platelets (human platelets [2]): 3.2±0.1 μm/sec

COC(=O)[C@H](c1ccccc1Cl)N1CCc2sccc2C1 [clopidogrel]
function of the ADP receptor on murine platelets [3]: can also block the function of the ADP receptor on murine platelets
thrombus size and formation in mice (thrombus): reduce thrombus size and delay its formation

ristocetin
murine platelet aggregation ([1]; about 1.0 mg/ml): no such effect; also recorded: had no effect
human platelet aggregation (human platelets [4]; plasma from VWF^HA1 mice): cause human platelet aggregation comparable to its human counterpart
human platelet aggregation (human platelets [4]; plasma from VWF^R1326H animals): such was not the case

VWF^1326R>H: full-length murine plasma VWF containing the 1326R>H mutation
translocation velocities of human platelets (human platelets [2]): 3.5±0.1 μm/sec
human platelet accumulation on the surface-immobilized protein (human platelets [2]; shear rate 1600 s^−1): bound human platelets at levels comparable with its human counterpart

abciximab
human platelet-induced hemostatic clot formation (human platelets [5]): completely disrupted
human platelet-induced hemostatic clot formation (human platelets [5]; listed as ReoPro): prevented the formation of a hemostatic plug
mean bleeding time (human platelets [5]; given 5 minutes after infusion of human platelets, bolus 0.25 mg/kg then 0.125 μg/kg/min): 579 s
duration of disruption of platelet function (αIIb β3): 24 to 36 h
αIIb β3 occupancy (αIIb β3): > 80%
binding or disruption of function of murine αIIb β3 (murine αIIb β3): does not bind or disrupt the function of murine αIIb β3

murine plasma VWF: plasma VWF of wild type mice
human platelet deposition as compared with same-species controls (human platelets [2]; human whole blood, shear rate 1600 s^−1): 10%

plasma VWF containing the human A1 domain: mouse VWF containing the majority of the human A1 domain (amino acids 1240P to 1481G)
mouse platelet interactions with the immobilized protein (mouse platelets): could not support any significant interactions
human platelet interactions with the immobilized protein (human platelets [6]): could interact at levels observed for human plasma VWF
